Test system: NOMO1
Experiment: cell viability relative to DMSO control; higher = less cytotoxic
Details: 48 h
In short: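 NOMO1 or SEM (500 cells/well) or P12-Ichikawa (1000 cells/well) leukemia cells were adapted for at least four passages in each medium. They were seeded in 1536-well plates (5 μl) and pin-dosed with library compounds in DMSO over an 11-point threefold series, 47 μM to 0.79 nM. CellTiter-Glo One luminescence was read after 48 h at 37°C. Viability is the per-plate percentage relative to DMSO wells, with cell-free wells as background.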

[1] = HPLM + 10% dialyzed FBS, 0.000781 µM
[2] = HPLM + 10% dialyzed FBS, 0.00234 µM
[3] = HPLM + 10% dialyzed FBS, 0.00702 µM
[4] = HPLM + 10% dialyzed FBS, 0.0211 µM
[5] = HPLM + 10% dialyzed FBS, 0.0632 µM
[6] = HPLM + 10% dialyzed FBS, 0.19 µM
[7] = HPLM + 10% dialyzed FBS, 0.569 µM
[8] = HPLM + 10% dialyzed FBS, 1.71 µM
[9] = HPLM + 10% dialyzed FBS, 5.12 µM
[10] = HPLM + 10% dialyzed FBS, 15.4 µM
[11] = HPLM + 10% dialyzed FBS, 46.1 µM
[12] = RPMI 5 mM glucose + 10% FBS, 0.000781 µM
[13] = RPMI 5 mM glucose + 10% FBS, 0.00234 µM
[14] = RPMI 5 mM glucose + 10% FBS, 0.00702 µM
[15] = RPMI 5 mM glucose + 10% FBS, 0.0211 µM
[16] = RPMI 5 mM glucose + 10% FBS, 0.0632 µM
[17] = RPMI 5 mM glucose + 10% FBS, 0.19 µM
[18] = RPMI 5 mM glucose + 10% FBS, 0.569 µM
[19] = RPMI 5 mM glucose + 10% FBS, 1.71 µM
[20] = RPMI 5 mM glucose + 10% FBS, 5.12 µM
[21] = RPMI 5 mM glucose + 10% FBS, 15.4 µM
[22] = RPMI 5 mM glucose + 10% FBS, 46.1 µM
[23] = RPMI 5 mM glucose + 10% dialyzed FBS, 0.000781 µM
[24] = RPMI 5 mM glucose + 10% dialyzed FBS, 0.00234 µM
[25] = RPMI 5 mM glucose + 10% dialyzed FBS, 0.00702 µM
[26] = RPMI 5 mM glucose + 10% dialyzed FBS, 0.0211 µM
[27] = RPMI 5 mM glucose + 10% dialyzed FBS, 0.0632 µM
[28] = RPMI 5 mM glucose + 10% dialyzed FBS, 0.19 µM
[29] = RPMI 5 mM glucose + 10% dialyzed FBS, 0.569 µM
[30] = RPMI 5 mM glucose + 10% dialyzed FBS, 1.71 µM
[31] = RPMI 5 mM glucose + 10% dialyzed FBS, 5.12 µM
[32] = RPMI 5 mM glucose + 10% dialyzed FBS, 15.4 µM
[33] = RPMI 5 mM glucose + 10% dialyzed FBS, 46.1 µM

SMILES | cell viability [1] | cell viability [2] | cell viability [3] | cell viability [4] | cell viability [5] | cell viability [6] | cell viability [7] | cell viability [8] | cell viability [9] | cell viability [10] | cell viability [11] | cell viability [12] | cell viability [13] | cell viability [14] | cell viability [15] | cell viability [16] | cell viability [17] | cell viability [18] | cell viability [19] | cell viability [20] | cell viability [21] | cell viability [22] | cell viability [23] | cell viability [24] | cell viability [25] | cell viability [26] | cell viability [27] | cell viability [28] | cell viability [29] | cell viability [30] | cell viability [31] | cell viability [32] | cell viability [33]
CC(C)c1ccc2c(c1)c(SC(C)(C)C)c(CC(C)(C)C(=O)[O-])n2Cc1ccc(Cl)cc1 | 110% | 98.7% | 110% | 104% | 109% | 101% | 111% | 95% | 82% | 95.1% | 87.8% | 84.2% | 103% | 92.8% | 90.4% | 88.9% | 96.9% | 105% | 87.9% | 86.3% | 85.4% | 85.1% | 90.5% | 91.5% | 91.9% | 91.6% | 81.5% | 87.7% | 79% | 81.4% | 78.5% | 81.6% | 75.5%
CN[C@@H](C)[C@H]1[C@H](O)C[C@@]2(C)[C@@H]3CC[C@H]4C(C)(C)[C@@H](NC)CC[C@@]45C[C@@]35CC[C@]12C | 81.4% | 102% | 81.7% | 108% | 89.8% | 93.7% | 105% | 95.2% | 82.6% | 105% | 70.9% | 85.4% | 94.5% | 91.6% | 94.3% | 102% | 102% | 95% | 94.8% | 93.9% | 95.7% | 92.5% | 86.4% | 87.8% | 101% | 99.6% | 104% | 95.6% | 93.1% | 91.7% | 86.1% | 99.6% | 72.1%
Cc1c(C)n(Cc2ccc(-c3ccccc3C(=O)O)cc2)c2ccc(C(=O)N[C@@H](C)c3ccc([N+](=O)[O-])cc3)cc12 | 92.6% | 107% | 106% | 103% | 115% | 116% | 102% | 86.8% | 86% | 32.2% | 35.1% | 118% | 107% | 111% | 126% | 105% | 112% | 124% | 101% | 101% | 18.7% | 12.3% | 108% | 121% | 104% | 109% | 114% | 107% | 125% | 106% | 111% | 19.2% | 16.2%
C[C@@H](Oc1cc(-c2cnn(C3CCNCC3)c2)cnc1N)c1c(Cl)ccc(F)c1Cl |  |  |  |  |  |  |  |  |  |  |  | 118% | 116% | 113% | 115% | 131% | 129% | 108% | 107% | 96.3% | 71.8% | 56.2% | 114% | 116% | 107% | 124% | 118% | 119% | 119% | 110% | 83% | 64.8% | 47.4%
COc1cc(OC2CCN(C)CC2)ccc1Nc1ncc2c(n1)n(C1CCCC1)c(=O)n2C | 80.9% | 86.8% | 107% | 85.9% | 96.8% | 90.8% | 103% | 108% | 93.6% | 87.7% | 2.59% | 82.7% | 82.5% | 75.4% | 84.8% | 78.1% | 92.8% | 83.2% | 76.5% | 81.1% | 76.9% | 18.4% | 76.6% | 88.9% | 90.4% | 83.6% | 81.2% | 95.2% | 91.6% | 100% | 91.7% | 60.4% | 16.1%
Clc1ccc(-c2nc3sccn3c2/C=N/OCc2ccc(Cl)c(Cl)c2)cc1 | 122% | 113% | 128% | 126% | 125% | 110% | 109% | 108% | 99.6% | 101% | 122% | 121% | 114% | 117% | 120% | 112% | 109% | 101% | 104% | 117% | 103% | 108% | 101% | 110% | 123% | 125% | 114% | 98% | 113% | 114% | 111% | 99.8% | 111%
O=C1c2ccccc2-[n+]2ccc3c([nH]c4ccccc43)c21 | 106% | 114% | 125% | 93.1% | 103% | 120% | 104% | 99.6% | 62% | 2.96% | 2.32% | 98% | 115% | 104% | 110% | 112% | 103% | 112% | 108% | 87% | 3.28% | 2.18% | 91.3% | 116% | 107% | 97.1% | 98.5% | 126% | 101% | 102% | 66.4% | 3.34% | 2%

From the supplement of paper PMC11451515
